# From patent US6759385B1, “Methods to treat undesirable immune responses” (Regents of the University of Minnesota, priority 1997, dated 2004)
# Key:
# [1] = tested on: serum anti-TAChR antibody; test: Anti-AChR antibody assay by RIPA (Example I); type: in vivo, mouse
# Text: Sera was obtained from the mice after each clinical testing. […] The antibody concentration is expressed as μM precipitated ^125I-αBTX.
# [2] = tested on: established EMG in B6 mice; test: Subcutaneous treatment, post-priming protocol, established EMG (Example IV); type: in vivo, mouse; details: at 44 weeks, s.c. post-priming protocol
# Protocol: (§1) B6 mice (Jackson Laboratory, Bar Harbor, Me.) were injected s.c. with 100 μl of PBS containing increasing amounts of a pool of the same amount in weight of each of the three epitope peptides Tα150-169, Tα180-200 and Tα360-378 (‘peptide pool’), or 200 μg of Tα150-169 alone, or 100 μl of PBS containing 0.1% Triton X-100 and 10 μg of solubilized TAChR. Two different treatment schedules were used, referred to as prevention and post-priming protocols. In the prevention protocol, the peptides or solubilized TAChR were administered twice per week for 14 weeks, starting 2 weeks before the beginning of the immunization with TAChR. In the post-priming protocol, peptides or solubilized TAChR were administered twice per week for […], starting 8 weeks after the beginning of the TAChR immunization. Control mice received 100 μl of peptide-free PBS, following the same schedules.
# (§2) Immunization 8-10 week old mice were immunized by s.c. injections, along the back and at the base of the tail, of TAChR (a total of 50 μg in 100 μl of PBS for each immunization) emulsified in an equal volume of CFA for the first injection, and IFA for the following two boosts. The mice were injected for a total of three times at 3-4 week intervals. At the end of the observation period, the mice received a third boost, and were sacrificed 5-7 days later. Control mice were injected with clean PBS in the appropriate adjuvant.
# Evaluation of the symptoms of EMG The EMG symptoms were quantified using a forced exercise test sensitized by i.p. injection of a minute amount of pancuronium bromide (0.03 mg/kg) just before the test (Karachunski et al., 1995). The mouse hangs from a grid suspended above a soft padding, and the time it takes the mouse to fall three times (‘holding time’) was measured. The test is parametric, and gives a quantitative assessment of the mouse weakness. The myasthenic nature of the weakness was verified by injecting i.p. edrophonium chloride (Reversol, Organon, West Orange, N.J.), which is a cholinesterase inhibitor. […] The mice were tested without knowledge of their treatment. […]
# [3] = tested on: CD8+ depleted spleen cells; test: Cytokine secretion in response to TAChR by CD8+ depleted spleen cells (Example IV); type: cell-based, mouse; details: s.c. 200 μg/injection, 72 hours
# Protocol: Cytokine secretion in response to TAChR by spleen CD4^+ cells in vitro. Five to seven days after the last immunization, spleen cells of three identically treated mice were pooled, and depleted them of CD8^+ cells using paramagnetic beads and rat anti-mouse CD8^+ Ab (Pharmingen, San Diego, Calif.), following the manufacturer's instructions. The CD8^+ depleted, CD4^+ enriched cells were cultured with 10 μg/ml TAChR, or without any stimulus. 24 well plates were used, and duplicate cultures prepared. The supernatants were harvested after 72 hours, and the concentrations of IFN-γ, IL-4 and IL-10 determined in duplicate samples by capture ELISA using anti-INF-γ, anti-IL-4, anti-IL-10 Ab, and recombinant INF-γ, IL-4 and IL-10 (Pharmingen) as standards, and following the manufacturer's instructions.
# [4] = tested on: CD8+ depleted spleen cells; test: Lymphocyte proliferation assay, CD8+ depleted spleen cells of IL-4 KO mice; type: cell-based, mouse; details: IL-4 KO mice immunized with TAChR, 10 μg/ml peptide
# Protocol: Lymphocyte Proliferation Assay. Two weeks after the last immunization, spleen cells (Bellone et al., 1991) were obtained from three identically treated IL-4 KO mice. The cells were pooled and depleted them in CD8^+ cells using paramagnetic beads and rat anti-mouse CD8^+ antibody (Pharmingen, San Diego, Calif.). The cells were suspended in RPMI-1640 (Gibco, Grand Island, N.Y.) supplemented with 10% heat inactivated fetal calf serum (Gibco), 50 μM 2-mercaptoethanol, 1 mM L-glutamine, 10 mM Hepes, 1 mM sodium pyruvate, 100 U/ml penicillin and 100 μg/ml streptomycin (×10^6 cells/ml). The cells were seeded in triplicate in 96 flat-bottom well plates (200 μl/well). One of the following antigens or stimulants was added: 10 μg/ml phytohemoagglutinine (PHA) (Sigma); 10 μg/ml TAChR; the pools of overlapping peptides spanning the α, β, γ, or δ subunit sequences (5 μg/ml) of each peptide); and 10 μg/ml of the individual a subunit peptides. Controls were triplicate wells cultivated without any antigen, or with or a 20-residue control peptide synthesized by the same method, unrelated to the TAChR sequence (10 μg). After four days the cells were labeled for 16 hours with ^3H-thymidine (1 μCi per well, specific activity 6.7 Ci/mmol, Dupont, Boston, Mass.), and harvested (Titertek, Skatron, Sterling, Va.). The ^3H-thymidine incorporation was measured by liquid scintillation.
# [5] = tested on: EMG in B6 mice immunized with TAChR; test: Subcutaneous tolerization, prevention protocol, EMG symptoms (Example IV); type: in vivo, mouse
# Protocol: as §1, §2
# Evaluation of the symptoms of EMG The EMG symptoms were quantified using a forced exercise test sensitized by i.p. injection of a minute amount of pancuronium bromide (0.03 mg/kg) just before the test (Karachunski et al., 1995). The mouse hangs from a grid suspended above a soft padding, and the time it takes the mouse to fall three times (‘holding time’) was measured. The test is parametric, and gives a quantitative assessment of the mouse weakness. The myasthenic nature of the weakness was verified by injecting i.p. edrophonium chloride (Reversol, Organon, West Orange, N.J.), which is a cholinesterase inhibitor. […] The mice were tested without knowledge of their treatment.
# The holding time of normal mice was 10.4±2.1 minutes (n=99). Mice with holding times of 8 minutes or longer were considered normal. Mice with holding times less than 6.2 minutes (the holding time of normal mice minus two SD) were considered to have fully developed EMG. Holding times of 6.2-8 minutes were considered to potentially indicate initial EMG. Normal or sham-immunized mice had occasionally holding times of 6.2-8 minutes, but never less than 6.2 minutes. Paralyzed mice and mice that died of respiratory paralysis are indicated as having holding time of 0 minutes.
# [6] = s.c. 200 μg/injection, second experiment
substance,measurement,setting,value
"peptide Tα150-169: synthetic peptide corresponding to residues 150-169 of the TAChR α subunit (TYDGTKVSISPESDRPDLST; UniProt P02710 174-193, looked up, fragment)",serum anti-TAChR antibody concentration compared with sham-treated,[1]; as early as 4 weeks after first TAChR immunization,significantly lower concentrations
same,serum anti-TAChR antibody concentration,"[1]; at ten weeks, nasal protocol B, μM precipitated 125I-αBTX",5.5 ± 1.5 µM
same,mice with holding times of 6.2 or less,[2],6%
same,TAChR-induced IFN-γ secretion,[3],did not cause increased
same,TAChR-induced IL-4 secretion,[3],significant increase
same,TAChR-induced IL-10 secretion,[3],in one of the two cultures tested
same,recognition of individual peptide by cells from sham-treated mice,[4],recognized strongly
same,mice with EMG at 8 weeks,[5]; [6],One mouse
same,prevention of EMG,[5]; [6],prevented EMG effectively
same,holding times compared with sham-tolerized groups,[5]; s.c. prevention protocol,significantly longer holding times
